Reference: the NIST ThermoML archive (doi:10.1021/je060271a)

Conditions: 303.14 K, Liquid, Vibrating tube method

CCCCCCC(=O)OCC(COC(=O)CCCCCC)(COC(=O)CCCCCC)COC(=O)CCCCCC [pentaerythritol tetraheptanoate]
Conditions	mass density [kg/m3]
3038.7 kPa	972.7
3058.7 kPa	972.6
3082.4 kPa	972.7
3102.9 kPa	972.7
3122.8 kPa	972.6
3144 kPa	972.7
3168.8 kPa	972.6
3190.1 kPa	972.7
3211.6 kPa	972.8
3237.6 kPa	972.8
3258.9 kPa	972.7
3281.4 kPa	972.8
3307.8 kPa	972.7
3330.1 kPa	972.8
3352.7 kPa	972.9
3380 kPa	972.9
3403.4 kPa	972.9
3426.8 kPa	973
3450.4 kPa	972.9
3479.2 kPa	972.9
3502.9 kPa	972.9
3527.3 kPa	972.9
3557 kPa	973
3581.9 kPa	973.1
3607.2 kPa	972.9
3632.9 kPa	973
3663.7 kPa	973
3689.2 kPa	973.1
3719.9 kPa	973.1
3746.2 kPa	973
3772.9 kPa	973.1
3800.2 kPa	973.1
3832.6 kPa	973.2
3860.2 kPa	973.1
3888.8 kPa	973.1
3922.9 kPa	973.2
3951.5 kPa	973.3
3980.6 kPa	973.3
4009.8 kPa	973.2
4044.8 kPa	973.2
4074.3 kPa	973.3
4103.9 kPa	973.4
4139.9 kPa	973.4
4170.1 kPa	973.4
4200.4 kPa	973.3
4233.1 kPa	973.3
4239.8 kPa	973.3
4241.6 kPa	973.4
4243.3 kPa	973.4
4244.7 kPa	973.5
4245.2 kPa	973.4
4245.9 kPa	973.5
4246.6 kPa	973.4
4246.8 kPa	973.5
4247.1 kPa	973.4
4247.3 kPa	973.4
4247.5 kPa	973.5
4249.4 kPa	973.4
4257.2 kPa	973.5
4271.5 kPa	973.3
4283.5 kPa	973.5
4296.1 kPa	973.4
4311.4 kPa	973.5
4322.4 kPa	973.6
4342.7 kPa	973.4
4361.4 kPa	973.4
4372.3 kPa	973.5
4382.1 kPa	973.5
4393.9 kPa	973.6
4403.8 kPa	973.4
4413.6 kPa	973.4
4425.4 kPa	973.5
4435.5 kPa	973.5
4445.2 kPa	973.5
4455.2 kPa	973.5
4467.5 kPa	973.6
4476.8 kPa	973.6
4487.4 kPa	973.6
4499.3 kPa	973.5
4509.6 kPa	973.5
4519.6 kPa	973.6
4529.8 kPa	973.5
4541.2 kPa	973.6
4551.3 kPa	973.5
4563.6 kPa	973.6
4573.1 kPa	973.6
4582.4 kPa	973.6
4592.3 kPa	973.7
4605.6 kPa	973.6
4631.8 kPa	973.7
4653.8 kPa	973.6
4676.1 kPa	973.5
4703.4 kPa	973.7
4724.4 kPa	973.8
4743.1 kPa	973.7
4764.9 kPa	973.7
4783.4 kPa	973.6
4801.9 kPa	973.8
4820.6 kPa	973.8
4843.5 kPa	973.7
4862.8 kPa	973.7
4882.7 kPa	973.8
4901.8 kPa	973.6
4925 kPa	973.8
4944 kPa	973.8
4964.4 kPa	973.9
4984.3 kPa	974
5008.5 kPa	973.8
5029 kPa	973.9
5050.1 kPa	974
5075 kPa	973.9
